Reference: patent US7314726B2, “Beta secretase exosite binding peptides and methods for identifying beta secretase modulators” (Bristol-Myers Squibb Company, priority 2002, dated 2008)
Alexa488 = Alexa Fluor 488 fluorescent label

How the values were obtained:
[1] = target: T1, BACE (Homo sapiens, UniProt P56817); assay: Competitive binding assay, displacement of labeled EBP from BACE, fluorescence anisotropy; set-up: The cDNA for the catalytic domain of human BACE (residues 1-460) was PCR-amplified; human IgG1 heavy chain (C, cleaved yes); thrombin cleavage site (C); made in house; host or cells: CHO DG44 cells (stably transfected, secreted)
Experimental: The competitive binding assay was carried out at pH 7.1 (PBS buffer) or pH 4.5 (50 mM acetate buffer). The fluorescence anisotropy was measured at 25° C. in an AVIV fluorometer. The excitation and emission wavelengths were set to 495 and 519 nm, respectively. The excitation and emission slit widths were 4 and 10 nm, respectively.
The initial anisotropy value was measured. A concentrated unlabeled peptide or compound stock was titrated into the above solution of EBP and BACE. The final concentration of unlabeled peptide or compound ranges from 20 to 20000 nM. After each addition, the solution was mixed for 10 times with a pipettor. The fluorescence anisotropy was averaged over a 5 minute period.
The change in anisotropy was converted to fractional occupancy based on the r0 and rb obtained from the binding assay. The fractional occupancy was then plotted against the concentration of the competing peptide or compound. (see, for example, FIG. 6) The Kd of the competing ligand was calculated from curve fitting using the program […]™ (Synergy Software, Reading, Pa.). The equation used to fit the competition data is identical to equation 4 in Lai et al., (2000) Arch. Biochem. Biophys. 381:278-284.
The truncated unlabeled peptides were screened at a single concentration of 10 μM at pH 4.5. The anisotropy values detected with Molecule X in the absence of inhibitor, i.e., truncated unlabeled peptide (ra) and in the presence of the inhibitor (rb) and the labeled peptide alone (r0) were used to calculate the percent of inhibition: 100 (ra-rb)/(ra-r0). The percent of inhibition was compared among the truncated peptides.

[2] = target: T2, catalytic domain of human BACE expressed in a CHO cell line (Homo sapiens, UniProt P56817); assay: Fluorescently labeled EBP binding to BACE, fluorescence anisotropy; conditions: pH 4.5 (50 mM acetate), 25° C., 1:1 binding model; read-out: binding constant (Kd) of labeled EBP
T2 construct: The cDNA for the catalytic domain of human BACE (residues 1-460) was PCR-amplified; human IgG1 heavy chain (C, cleaved yes); thrombin cleavage site (C); made in house; host or cells: CHO DG44 cells (stably transfected, secreted)
Experimental: An assay to evaluate the binding of BACE to EBPs labeled with a fluorescent molecule (for example, but not limited to Alexa488) was developed. This assay uses the catalytic domain of human BACE expressed in a CHO cell line (according to Example 3) and labeled EBPs such as Molecule X shown in FIG. 4. The change in fluorescent anisotropy of the EBP peptide upon binding to BACE is monitored.
Peptides were dissolved in 100% DMSO (dimethyl sulfoxide) at 10 mM concentration, and then diluted 10-fold into deionized water. The concentration of the labeled peptides was determined by their absorbance at 495 nm (ε=71000 cm^−1M^−1). The concentration of selected unlabeled peptides was determined by their Tyr absorbance at 276 nm (ε=1390 cm^−1M^−1 per Tyr residue).
The binding was carried out at pH 7.1 (PBS buffer) and pH 4.5 (50 mM acetate buffer) in the presence of 1% DMSO. Fluorescence anisotropy was measured at 25° C. in an AVIV fluorometer. The excitation and emission wavelengths were set to 495 and 519 nm, respectively. The excitation and emission slit width were 4 and 10 nm, respectively. A concentrated BACE stock was used to titrate a 300 μl solution of 10 nM labeled EBP. The final BACE concentration ranges from 10 to 5000 nM. After the addition of BACE, the solution was mixed for 10 times with a pipettor. The fluorescence anisotropy was averaged over a 5 minute period.
The change in anisotropy was plotted against the BACE concentration (see, for example, FIG. 5). The Kd of the labeled EBP as well as the initial (r0) and final anisotropy (rb) of the labeled EBP were calculated from curve fitting using the program Kaleidagraph. The equation used to fit the binding data is identical to equation 1 in Lai et al., (2000) Arch. Biochem. Biophys. 381:278-284.

[3] = target: T1, BACE; assay: Isothermal titration calorimetry (ITC) of BACE and peptides; assay type: binding; set-up: The cDNA for the catalytic domain of human BACE (residues 1-460) was PCR-amplified; human IgG1 heavy chain (C, cleaved yes); thrombin cleavage site (C); made in house; host or cells: CHO DG44 cells (stably transfected, secreted); conditions: 25° C.
Experimental: Isothermal titration calorimetry was performed to determine quantitatively the binding affinities of BMS-561877 and BMS-561871 for β-secretase. Recombinant human BACE was expressed as a fusion protein with human IgG1, in Chinese hamster ovary (CHO) cells (Vassar et al., (1999) Science 286:735-741 and Haniu et al., (2000) J. Biol. Chem. 275:21099-21106).
This construct, referred to as BACE-T-IgG, also contained a protease cleavage site between BACE and IgG1, sensitive to human α-thrombin. The cDNA for the catalytic domain of human BACE (residues 1-460) was PCR-amplified and subcloned into the mammalian expression vector pTV1.6, upstream of a thrombin cleavage site linked to cDNA encoding human IgG1 heavy chain. The vector construct, pTV1.6-BACE-T-IgG, was used to produce stably transfected DHFR-deficient CHO DG44 cells, which were then scaled up using methotrexate for selection.
The clarified growth media harvested from CHO DG44 cells which contained the fusion protein was loaded onto a rProtein A SEPHAROSE™ column (5×20 cm, Amersham Pharmacia Biotech) using a peristaltic pump at 4° C., at 4 mL/min. The column was washed with Dulbecco's PBS, pH 7.1, 4 mL/min, until baseline absorbance at 280 nm was observed. BACE-T-IgG was eluted from the resin with 0.10 M citrate, pH 3.0, into tubes containing 0.5 volumes of 4 M Tris, pH 8. Fractions containing the fusion protein were dialyzed extensively using 12,000-14,000 […] MWCO membrane (UltraPURE, GIBCO BRL) against PBS, pH 7.1, at 4° C. The protein was sterile filtered (0.22 μm) and stored at 4° C.
To generate BACE for binding experiments, the fusion protein BACE-T-IgG was treated with human α-thrombin (Enzyme Research Labs, South Bend, Ind.) at a ratio of 1:500 (mass:mass) in Dulbecco's PBS, pH 7.1, at 37° C. for 2 hr. Human α-thrombin was removed by passing the sample over Benzamidine SEPHAROSE™ 6B column (Amersham Pharmacia Biotech). The cleaved IgG1 was captured by passing the solution over a rProtein A SEPHAROSE™ (Amersham Pharmacia Biotech) column, whereas the BACE passed through this column. The protein sample was further purified by concentrating to 10-15 mg/mL using a centrifugation concentration unit (Millipore Ultrafree 10 kDa MWCO, 15 mL unit) and loading onto a SUPERDEX™ 200 PC 3.2/30 gel-filtration column (Amersham Pharmacia Biotech). The column was run at 3 mL/min with Dulbecco's PBS, pH 7.1, at room temperature. Fractions containing BACE were combined, sterile filtered (0.22 μm) and stored at 4° C.
BACE was prepared for isothermal titrating calorimetry by extensive dialysis against fresh buffer at 4° C. using 12,000-14,000 […] MWCO dialysis membrane (UltraPURE, GIBCO BRL). […] Following 2 buffer changes, the protein was removed from the membrane and centrifuged (5 min×4000 g, 4° C.) to remove particulates. The protein was stored at 4° C. until needed for the calorimetry experiments. The protein concentration was determined by 10-fold dilution into the same buffer, and measuring the UV absorbance at 280 nm in a 1.00 cm pathlength cell (calculated value=1.22 AU=1.00 mg/mL protein, based on mean glycosylated molecular weight=53.5 kDa, and given amino acid composition). Final concentrations used in isothermal titrating calorimetry were typically 5.0 μM, containing a final concentration of 0.5% v/v DMSO.
Peptides were dissolved in the buffer dialysate from protein dialysis, and equal volumes of DMSO were added to each (0.5% v/v DMSO). The pH values of the solutions were adjusted as necessary to equal that of the buffer dialysate and protein sample within 0.01 pH units.

[4] = target: T1, BACE; assay: Phage ELISA of phage-displayed peptides on immobilised BACE; assay type: binding; set-up: The cDNA for the catalytic domain of human BACE (residues 1-460) was PCR-amplified; human IgG1 heavy chain (C, cleaved yes); thrombin cleavage site (C); made in house; host or cells: CHO DG44 cells (stably transfected, secreted); conditions: clones from solid phase panning at pH 7.0
Experimental: Two highly selected and homologous 12 mer phage peptides bound BACE specifically and reproducibly in phage-ELISA tests. Bristol-Myers Squibb fUSE5-based C4C, C6C, 5- and 15 mer libraries, and M13-based C7C libraries, and 7- and 12 mer libraries obtained from New England Biolabs, Beverly, Mass. were panned for three cycles against BACE (produced as described herein in Example 3). BACE was immobilized by coating at 0.5 μg/well in 4 wells of Dynex Immulon 4HBX plates overnight at 4° C. in 0.1M NaHCO3 buffer, pH 9.0. Panning was by standard procedures at room temperature that involved blocking wells with 2% BSA in PBS and elution with 0.1M HCL, pH 2.2. The vector NTI alignment tool and visual inspection of sequences were employed to analyze the selected peptides.
After sequencing approximately 20-50 clones from each library after three cycles of selection, we prepared essentially all possible candidate clones (39 clones in total) for phage-ELISA to obtain direct evidence for affinity to BACE. […] We therefore sequenced additional 12 mer clones to try to find additional candidate clones. […] This […] (SEQ ID NO:20) peptide is homologous to […] (SEQ ID NO:19) and consistent with the specific binding of both those peptides to BACE. The […] (SEQ ID NO:20) peptide and […] (SEQ ID NO:19) peptides were the two most efficiently recovered clones with 13 and 9 copies, respectively. […]

T1 sequence (P56817 46-460 limits assumed): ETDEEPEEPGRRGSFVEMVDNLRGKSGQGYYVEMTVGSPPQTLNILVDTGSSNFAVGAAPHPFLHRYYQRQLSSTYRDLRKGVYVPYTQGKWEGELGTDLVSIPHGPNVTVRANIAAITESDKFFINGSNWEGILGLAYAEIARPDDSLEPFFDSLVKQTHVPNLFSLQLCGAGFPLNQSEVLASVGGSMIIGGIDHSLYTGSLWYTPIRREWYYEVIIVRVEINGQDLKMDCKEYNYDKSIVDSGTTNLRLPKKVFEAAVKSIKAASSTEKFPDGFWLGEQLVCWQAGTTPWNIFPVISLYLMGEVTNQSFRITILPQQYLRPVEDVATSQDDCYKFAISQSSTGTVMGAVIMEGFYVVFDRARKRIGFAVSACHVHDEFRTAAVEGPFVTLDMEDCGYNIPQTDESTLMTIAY
T2 sequence (P56817 46-460 limits assumed): as above

Compound: CC[C@H](C)[C@H](NC(=O)[C@H](Cc1ccccc1)NC(=O)[C@H](Cc1ccc(O)cc1)NC(=O)[C@@H]1CCCN1C(=O)[C@H](Cc1ccc(O)cc1)NC(C)=O)C(=O)N1CCC[C@H]1C(=O)N[C@@H](CC(C)C)C(N)=O [BMS-593925, Tyr-Pro-Tyr-Phe-Ile-Pro-Leu]
- Kd ([1]; pH 4.5, displacement of Molecule Y1, read-out: Kd of unlabeled EBP by competition): 1200 nM

Compound: Molecule Y2: analog of Molecule Y1 with different length of linker between Alexa488 and the peptide (Ac-YPYFIPL-Alexa488; also: linker between peptide and Alexa488 not given here)
- Kd [2]: 92 nM

Compound: Ac-HWPFFIRS-NH2 [BMS-655507]
- KA ([3]; 50 mM NaOAc, pH 4.5): 610000 M⁻¹
- Kd ([3]; 50 mM NaOAc, pH 4.5): 1640 nM
- TΔS ([3]; 50 mM NaOAc, pH 4.5): -5.46 kcal/mol
- ΔG ([3]; 50 mM NaOAc, pH 4.5): -7.90 kcal/mol
- ΔH ([3]; 50 mM NaOAc, pH 4.5): -13.35 kcal/mol
- KA ([3]; Dulbecco's PBS, pH 7.0): 1.09e+06 M⁻¹
- Kd ([3]; Dulbecco's PBS, pH 7.0): 914 nM
- TΔS ([3]; Dulbecco's PBS, pH 7.0): -9.81 kcal/mol
- ΔG ([3]; Dulbecco's PBS, pH 7.0): -8.23 kcal/mol
- ΔH ([3]; Dulbecco's PBS, pH 7.0): -18.04 kcal/mol

Compound: Ac-ALYPYFLPISAK-NH2 [BMS-561877]
- phage ELISA binding to BACE [4]: specific binding to BACE

Compound: LYPPYIF (Ac-LYPPYIF-NH2) [BMS-599271, scrambled peptide containing the same amino acids as BMS-593925]
- binding to BACE ([1]; scrambled peptide): does not bind to BACE

Compound: Molecule Y4: analog of Molecule Y1 with different length of linker between Alexa488 and the peptide (Ac-YPYFIPL-Alexa488; also: linker between peptide and Alexa488 not given here)
- Kd [2]: 62 nM
